Data: the supplement of paper PMC10307832

Assays:
Test in all cases: relative viability (nuclei count vs DMSO), 5 days (fraction); higher = more cells survive
Zebularine + Dasatinib = compound: O=c1ncccn1[C@@H]1O[C@H](CO)[C@@H](O)[C@H]1O [Zebularine] + Cc1nc(Nc2ncc(C(=O)Nc3c(C)cccc3Cl)s2)cc(N2CCN(CCO)CC2)n1 [Dasatinib] (partner 0.075 µM)
In short: (§1)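 Medians of duplicate plates are given as relative viability. That measure is the nuclei count in treated wells divided by the count in vehicle wells. Counts were taken on 4× images of lung cancer cell lines in 1536-well plates, 5 days after pin-tool dosing the day after seeding with one drug alone or a fixed anchor-drug dose plus five library-drug doses (not always all listed) in √10 steps.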

BI-D1870 + Pictilisib = compound: CC(C)CCN1c2nc(Nc3cc(F)c(O)c(F)c3)ncc2N(C)C(=O)C1C [BI-D1870] + CS(=O)(=O)N1CCN(Cc2cc3nc(-c4cccc5[nH]ncc45)nc(N4CCOCC4)c3s2)CC1 [Pictilisib] (partner 1 µM)
In short: as §1

BI-D1870 + Olaparib = compound: CC(C)CCN1c2nc(Nc3cc(F)c(O)c(F)c3)ncc2N(C)C(=O)C1C [BI-D1870] + O=C(c1cc(Cc2n[nH]c(=O)c3ccccc23)ccc1F)N1CCN(C(=O)C2CC2)CC1 [Olaparib] (partner 8 µM)
In short: as §1

BI-D1870 + Bortezomib = compound: CC(C)CCN1c2nc(Nc3cc(F)c(O)c(F)c3)ncc2N(C)C(=O)C1C [BI-D1870] + CC(C)C[C@H](NC(=O)[C@H](Cc1ccccc1)NC(=O)c1cnccn1)B(O)O [Bortezomib] (partner 0.002 µM)
In short: as §1

Row | Cell Line | relative viability (Zebularine + Dasatinib; first compound 1 µM) | relative viability (Zebularine + Dasatinib; first compound 3.162 µM) | relative viability (Zebularine + Dasatinib; first compound 10 µM) | relative viability (Zebularine + Dasatinib; first compound 31.62 µM) | relative viability (Zebularine + Dasatinib; first compound 100 µM) | relative viability (BI-D1870 + Pictilisib; first compound 0.04 µM) | relative viability (BI-D1870 + Pictilisib; first compound 0.1265 µM) | relative viability (BI-D1870 + Pictilisib; first compound 0.4 µM) | relative viability (BI-D1870 + Pictilisib; first compound 1.265 µM) | relative viability (BI-D1870 + Pictilisib; first compound 4 µM) | relative viability (BI-D1870 + Olaparib; first compound 0.04 µM) | relative viability (BI-D1870 + Olaparib; first compound 0.1265 µM) | relative viability (BI-D1870 + Olaparib; first compound 0.4 µM) | relative viability (BI-D1870 + Olaparib; first compound 1.265 µM) | relative viability (BI-D1870 + Olaparib; first compound 4 µM) | relative viability (BI-D1870 + Bortezomib; first compound 0.04 µM) | relative viability (BI-D1870 + Bortezomib; first compound 0.1265 µM) | relative viability (BI-D1870 + Bortezomib; first compound 0.4 µM) | relative viability (BI-D1870 + Bortezomib; first compound 1.265 µM) | relative viability (BI-D1870 + Bortezomib; first compound 4 µM)
1 | 201T | 0.635 | 0.586 | 0.508 | 0.6 | 0.548 | 0.672 | 0.624 | 0.716 | 0.684 | 0.642 | 0.901 | 0.806 | 0.809 | 0.851 | 0.856 | 1.14 | 1.06 | 1.07 | 1.1 | 1.06
2 | A549 |  |  |  |  |  | 0.725 | 0.499 | 0.369 | 0.465 | 0.0705 | 0.382 | 0.382 | 0.268 | 0.379 | 0.399 |  |  |  |  | 
3 | A-427 | 0.841 | 0.664 | 0.434 | 0.535 | 0.2 | 0.824 | 0.553 | 0.689 | 0.716 | 0.654 | 0.71 | 0.647 | 0.659 | 0.705 | 0.551 | 1.08 | 1.01 | 0.936 | 1.08 | 0.968
4 | Calu-6 |  |  |  |  |  | 1.03 | 0.82 | 0.868 | 0.704 | 0.367 | 0.658 | 0.534 | 0.479 | 0.359 | 0.254 | 0.972 | 0.914 | 1.05 | 0.845 | 0.361
5 | EBC-1 |  |  |  |  |  | 0.459 | 0.451 | 0.354 | 0.363 | 0.123 | 0.738 | 0.581 | 0.574 | 0.337 | 0.183 | 0.685 | 0.435 | 0.417 | 0.323 | 0.123
6 | HCC-44 |  |  |  |  |  | 0.651 | 0.498 | 0.617 | 0.768 | 0.443 | 1 | 0.954 | 0.98 | 1.05 | 0.976 | 1.08 | 0.965 | 0.909 | 0.941 | 0.99
7 | IA-LM |  |  |  |  |  | 0.406 | 0.294 | 0.268 | 0.196 | 0.106 | 0.812 | 0.739 | 0.913 | 0.851 | 0.506 | 1.05 | 0.842 | 0.756 | 0.764 | 0.204
8 | LK-2 | 0.242 | 0.336 | 0.287 | 0.256 | 0.228 | 0.557 | 0.484 | 0.535 | 0.619 | 0.533 | 0.913 | 0.655 | 0.683 | 0.834 | 0.71 |  |  |  |  | 
9 | NCI-H358 | 0.169 | 0.134 | 0.194 | 0.174 | 0.105 | 0.38 | 0.233 | 0.338 | 0.365 | 0.322 | 0.685 | 0.548 | 0.592 | 0.485 | 0.35 |  |  |  |  | 
10 | NCI-H522 | 0.859 | 0.886 | 0.473 | 0.933 | 0.938 |  |  |  |  |  | 0.7 | 0.627 | 0.67 | 0.667 | 0.62 |  |  |  |  | 
11 | NCI-H1299 |  |  |  |  |  | 0.801 | 0.774 | 0.653 | 0.514 | 0.19 | 1.04 | 1 | 0.996 | 0.892 | 0.545 | 1 | 0.985 | 1.02 | 0.959 | 0.839
12 | NCI-H1395 | 0.443 | 0.37 | 0.408 | 0.341 | 0.36 | 0.684 | 0.588 | 0.587 | 0.673 | 0.507 | 0.448 | 0.436 | 0.429 | 0.489 | 0.406 |  |  |  |  | 
13 | NCI-H1563 | 0.498 | 0.528 | 0.527 | 0.406 | 0.466 | 0.674 | 0.617 | 0.604 | 0.693 | 0.681 |  |  |  |  |  | 0.908 | 0.81 | 0.802 | 0.852 | 0.784
14 | NCI-H1648 |  |  |  |  |  |  |  |  |  |  | 0.919 | 0.691 |  | 0.633 | 0.846 |  |  |  |  | 
15 | NCI-H1703 |  |  |  |  |  | 0.256 | 0.245 | 0.234 | 0.213 | 0.209 |  | 0.439 | 0.328 | 0.487 | 0.315 | 0.377 | 0.315 | 0.353 | 0.288 | 0.21
16 | NCI-H1793 | 0.479 | 0.373 |  | 0.25 | 0.176 | 0.295 | 0.308 | 0.227 | 0.347 | 0.288 | 1.05 | 0.708 | 0.799 | 1.02 | 0.898 |  |  |  |  | 
17 | NCI-H1944 | 0.202 | 0.199 | 0.221 | 0.215 | 0.193 | 0.395 | 0.294 | 0.332 | 0.377 | 0.345 | 0.455 | 0.412 | 0.368 | 0.398 | 0.367 |  |  |  |  | 
18 | NCI-H2170 | 0.658 | 0.572 | 0.364 | 0.559 | 0.278 | 0.287 | 0.333 | 0.347 | 0.301 | 0.302 | 0.707 | 0.605 | 0.575 | 0.587 | 0.448 |  |  |  |  | 
19 | NCI-H2342 | 0.364 | 0.337 | 0.268 | 0.334 | 0.341 |  |  |  |  |  | 0.524 | 0.459 | 0.471 | 0.415 | 0.502 |  |  |  |  | 
20 | SK-MES-1 | 0.386 | 0.423 | 0.356 | 0.299 | 0.166 | 0.345 | 0.332 | 0.291 | 0.308 | 0.23 | 0.77 | 0.561 | 0.731 | 0.363 | 0.19 |  |  |  |  | 
21 | SW 900 | 0.647 | 0.498 | 0.328 | 0.926 | 0.484 |  |  |  |  |  | 0.826 | 0.765 | 0.711 | 0.733 | 0.964 |  |  |  |  | 
